In US20260138961A1, “MODULATORS OF MITOCHONDRIAL DNA REPLICATION” (Pretzel Therapeutics, Inc., priority 2022, published 2026):

target: T1, wild type human POLγ (POLγA:WT) (Homo sapiens, UniProt P54098); assay: DNA polymerization assay, wild type POLγ; type: biochemical; settings: 0.1 μM dNTP, read-out: WT AC50 (μM) at 0.1 μM
T1 sequence (P54098 1-1239): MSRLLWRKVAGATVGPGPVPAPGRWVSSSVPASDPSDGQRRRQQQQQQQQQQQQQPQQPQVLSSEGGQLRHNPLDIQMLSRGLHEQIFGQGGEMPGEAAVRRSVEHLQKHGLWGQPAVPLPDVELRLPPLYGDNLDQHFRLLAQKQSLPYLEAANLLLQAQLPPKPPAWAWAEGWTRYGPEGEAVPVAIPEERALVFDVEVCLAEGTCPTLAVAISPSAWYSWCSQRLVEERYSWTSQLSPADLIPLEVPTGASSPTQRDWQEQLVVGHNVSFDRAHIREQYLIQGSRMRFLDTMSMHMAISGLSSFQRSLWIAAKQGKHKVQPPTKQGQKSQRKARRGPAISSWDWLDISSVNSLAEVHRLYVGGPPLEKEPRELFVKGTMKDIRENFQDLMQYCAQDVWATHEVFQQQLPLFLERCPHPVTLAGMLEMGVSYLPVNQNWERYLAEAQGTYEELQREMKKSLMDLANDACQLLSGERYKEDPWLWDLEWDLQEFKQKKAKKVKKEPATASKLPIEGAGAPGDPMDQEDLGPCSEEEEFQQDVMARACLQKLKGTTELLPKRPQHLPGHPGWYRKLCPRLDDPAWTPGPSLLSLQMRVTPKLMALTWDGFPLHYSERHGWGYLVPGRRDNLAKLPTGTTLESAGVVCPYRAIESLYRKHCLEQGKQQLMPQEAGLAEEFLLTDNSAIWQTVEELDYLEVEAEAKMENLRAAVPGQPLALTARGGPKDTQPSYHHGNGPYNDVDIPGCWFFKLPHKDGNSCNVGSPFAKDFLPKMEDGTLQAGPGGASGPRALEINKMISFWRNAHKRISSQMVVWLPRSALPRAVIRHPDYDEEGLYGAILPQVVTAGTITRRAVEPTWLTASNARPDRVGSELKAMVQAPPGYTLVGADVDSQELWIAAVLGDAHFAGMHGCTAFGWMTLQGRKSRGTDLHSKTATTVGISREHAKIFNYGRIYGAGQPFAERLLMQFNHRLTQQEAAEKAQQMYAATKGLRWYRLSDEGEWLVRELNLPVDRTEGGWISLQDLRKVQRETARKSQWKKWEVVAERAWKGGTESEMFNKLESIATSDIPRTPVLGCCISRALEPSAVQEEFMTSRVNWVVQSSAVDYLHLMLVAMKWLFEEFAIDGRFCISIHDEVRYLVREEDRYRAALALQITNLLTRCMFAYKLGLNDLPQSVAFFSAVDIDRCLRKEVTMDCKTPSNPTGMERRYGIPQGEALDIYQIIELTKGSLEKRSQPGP
T1 sequence (Q9UHN1 1-485 partner): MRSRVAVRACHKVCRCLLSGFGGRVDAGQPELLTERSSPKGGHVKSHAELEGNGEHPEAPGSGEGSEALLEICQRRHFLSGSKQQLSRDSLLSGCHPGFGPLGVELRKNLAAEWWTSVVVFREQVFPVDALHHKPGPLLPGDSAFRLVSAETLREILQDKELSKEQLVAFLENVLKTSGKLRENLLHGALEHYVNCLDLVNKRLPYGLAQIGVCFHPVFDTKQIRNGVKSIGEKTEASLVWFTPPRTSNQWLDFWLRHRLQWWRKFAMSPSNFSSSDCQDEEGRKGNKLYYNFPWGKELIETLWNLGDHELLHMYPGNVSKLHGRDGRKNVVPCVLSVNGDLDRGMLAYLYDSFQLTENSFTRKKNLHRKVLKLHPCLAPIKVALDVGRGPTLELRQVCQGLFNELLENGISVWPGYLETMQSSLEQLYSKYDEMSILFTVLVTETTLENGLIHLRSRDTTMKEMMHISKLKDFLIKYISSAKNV
Method: DNA Polymerization Assay to Monitor Effects on Human Wildtype POLγ and Four Disease-Causing Mutant Variants of Human POLγ.
The ability of small molecules to stimulate the polymerase activity of POLγ was analyzed in a quantitative fluorescence SYBR Green I assay with fluorescence intensity (FI) readout.
In the presence of dNTPs, wild type human POLγ and mutant derivatives thereof were incubated with single-stranded, circular M13mp18 ssDNA hybridized to a short DNA oligonucleotide that functions as a primer for initiation of DNA synthesis. POLγ and mutant derivatives thereof will extend the primer and use the M13mp18 molecule as a template to synthesize long stretches of double-stranded DNA. SYBR Green I, which is a double-stranded DNA-binding dye, was used to quantify formation of double-stranded DNA in the reaction. When bound to double-stranded DNA, SYBR Green I fluorescence increases by up to 100-fold.
The assay was performed in the 384-well plate format. Upon addition of compounds, changes in double-stranded DNA synthesis activity can be monitored by following effects on fluorescent intensity.
The reactions also contained the accessory POLγB subunit, and the human mitochondrial single-stranded DNA binding protein (mtSSB).
The DNA template mixture used in the assay contained 0.5 nM primed M13 mp18 ssDNA, 400 nM mtSSB, 0.1 mM Tris-HCl (pH 8.0), 0.1 mM dNTP, 10 mM MgCl2, 0.1 mg/mL BSA, 1 mM TCEP solution, and 0.02% Triton X-100. The DNA template mixture for the wild type protein contained either 100 μM dNTP, 1 μM dNTP, or 0.1 μM dNTP, designated in Table 2 as 100 μM, 1 μM, and 0.1 μM, respectfully.
Microplates with compounds (0.1 μL in each well) to be tested in the assay were prepared from 10 mM compound stocks in 100% DMSO, and equal amounts of DMSO without any compound were added to positive and negative control wells.
The protein mixture was dispensed (5 μL into each well) into compound plates and incubated at 37° C. for 15 minutes. After incubation, 5 μL of the DNA template mixture was dispensed into each well. The plates were then incubated at 37° C. for 2 hours.
During incubation, a combined stop buffer and detection reagent solution was prepared. The buffer contained 25 mM EDTA (pH 8.0), 0.02% Triton X-100, and SYBR Green I [Invitrogen] diluted 10,000× (for fluorescent readout). EDTA will stop the enzymatic reaction by chelating magnesium ions.

| AC50 [µM] | SMILES |
| --- | --- |
| 5 | Cc1cnc(-c2ccc(Cl)c(NS(=O)(=O)c3cc(C)c(Cl)cc3C)c2)s1 [Example 102, 4-chloro-N-(2-chloro-5-(5-methylthiazol-2-yl)phenyl)-2,5-dimethylbenzenesulfonamide] |
| 17 | Cc1cnc(-c2cc(NS(=O)(=O)c3cc(C)c(Cl)cc3C)ccc2C)s1 [Example 103, 4-chloro-2,5-dimethyl-N-(4-methyl-3-(5-methylthiazol-2-yl)phenyl)benzenesulfonamide] |

same assay, conditions: 100 μM dNTP, read-out: WT AC50 (μM) at 100 μM

| AC50 [µM] | SMILES |
| --- | --- |
| > 100 | Cc1cc(S(=O)(=O)Nc2cccc(C(=O)N(C)C(C)CO)c2)c(C)cc1Cl (single isomer, unassigned) [Example 14, 3-((4-chloro-2,5-dimethylphenyl)sulfonamido)-N-(1-hydroxypropan-2-yl)-N-methylbenzamide] |
| 1 | Cc1ccc(C)c(S(=O)(=O)Nc2cccc(C(=O)N3CCCCC3C#N)c2)c1 (centres unmarked) [Example 2, N-(3-(2-cyanopiperidine-1-carbonyl)phenyl)-2,5-dimethylbenzenesulfonamide] |
| > 100 | Cc1ccc(C)c(S(=O)(=O)Nc2cccc(C(=O)N3CCCCC3)c2)c1 [Example 3, 2,5-dimethyl-N-(3-(piperidine-1-carbonyl)phenyl)benzene sulfonamide] |
| 5 | Cc1ccc(C)c(S(=O)(=O)Nc2cccc(C(=O)N3CCCC[C@H]3C)c2)c1 [Example 5, (R)-2,5-dimethyl-N-(3-(2-methylpiperidine-1-carbonyl)phenyl)benzenesulfonamide] |
| 4 | Cc1ccc(C)c(S(=O)(=O)Nc2cccc(C(=O)N3CCCC[C@@H]3C)c2)c1 [Example 6, (S)-2,5-dimethyl-N-(3-(2-methylpiperidine-1-carbonyl)phenyl)benzenesulfonamide] |
| 1 | Cc1ccc(C)c(S(=O)(=O)Nc2cccc(C(=O)N3CCOCC3C#N)c2)c1 (centres unmarked) [Example 7, N-(3-(3-cyanomorpholine-4-carbonyl)phenyl)-2,5-dimethylbenzenesulfonamide] |
| 5 | Cc1ccc(C)c(S(=O)(=O)Nc2cccc(C(=O)N[C@@H](C)C3CC3)c2)c1 [Example 8, (S)-N-(1-cyclopropylethyl)-3-((2,5-dimethylphenyl)sulfonamido)benzamide] |
| 2 | Cc1cc(S(=O)(=O)Nc2cccc(C(=O)N3CCCC[C@H]3C)c2)c(C)cc1Cl [Example 9, (R)-4-chloro-2,5-dimethyl-N-(3-(2-methylpiperidine-1-carbonyl)phenyl)benzenesulfonamide] |
| 0.5 | Cc1cc(S(=O)(=O)Nc2cccc(C(=O)N3CCC[C@H]3C)c2)c(C)cc1Cl [Example 10, (R)-4-chloro-2,5-dimethyl-N-(3-(2-methylpyrrolidine-1-carbonyl)phenyl)benzenesulfonamide] |
| 29 | Cc1cc(S(=O)(=O)Nc2cccc(C(=O)NCc3ccccc3)c2)c(C)cc1Cl [Example 11, N-benzyl-3-((4-chloro-2,5-dimethylphenyl)sulfonamido)benzamide] |
| 5 | Cc1cc(S(=O)(=O)Nc2cccc(C(=O)N(C)C)c2)c(C)cc1Cl [Example 12, 3-((4-chloro-2,5-dimethylphenyl)sulfonamido)-N,N-dimethylbenzamide] |
| 1 | Cc1cc(S(=O)(=O)Nc2cc(F)cc(C(=O)N3CCC[C@H]3C)c2)c(C)cc1Cl [Example 13, (R)-4-chloro-N-(3-fluoro-5-(2-methylpyrrolidine-1-carbonyl)phenyl)-2,5-dimethylbenzenesulfonamide] |
| 0.2 | Cc1cc(S(=O)(=O)Nc2cccc(-c3nccs3)c2)c(C)cc1Cl [Example 16, 4-chloro-2,5-dimethyl-N-(3-(thiazol-2-yl)phenyl)benzenesulfonamide] |
| 0.6 | Cc1cc(S(=O)(=O)Nc2cccc(-c3ncco3)c2)c(C)cc1Cl [Example 17, 4-chloro-2,5-dimethyl-N-(3-(oxazol-2-yl)phenyl)benzenesulfonamide] |
| 1 | Cc1cc(S(=O)(=O)Nc2cccc(-c3ccn(C)n3)c2)c(C)cc1Cl [Example 18, 4-chloro-2,5-dimethyl-N-(3-(1-methyl-1H-pyrazol-3-yl)phenyl)benzenesulfonamide] |
| 0.8 | Cc1cc(S(=O)(=O)Nc2cccc(-c3nccn3C)c2)c(C)cc1Cl [Example 19, 4-chloro-2,5-dimethyl-N-(3-(1-methyl-1H-imidazol-2-yl)phenyl)benzenesulfonamide] |
| > 10 | Cc1cc(S(=O)(=O)Nc2cccc(-c3ncc(C(N)=O)s3)c2)c(C)cc1Cl [Example 92, 2-(3-((4-chloro-2,5-dimethylphenyl)sulfonamido)phenyl) thiazole-5-carboxamide] |
| 3 | CNC(=O)c1cnc(-c2cccc(NS(=O)(=O)c3cc(C)c(Cl)cc3C)c2)s1 [Example 93, 2-(3-((4-chloro-2,5-dimethylphenyl)sulfonamido)phenyl)-N-methylthiazole-5-carboxamide] |
| > 10 | Cc1cc(S(=O)(=O)Nc2cccc(-c3ncc(C#N)s3)c2)c(C)cc1Cl [Example 96, 4-chloro-N-(3-(5-cyanothiazol-2-yl)phenyl)-2,5-dimethylbenzenesulfonamide] |
| > 10 | Cc1cnc(-c2ccc(C)c(NS(=O)(=O)c3cc(C)c(Cl)cc3C)c2)s1 [Example 98, 4-chloro-2,5-dimethyl-N-(2-methyl-5-(5-methylthiazol-2-yl)phenyl)benzenesulfonamide] |
| > 10 | Cc1cnc(-c2ccc(Cl)c(NS(=O)(=O)c3cc(C)c(Cl)cc3C)c2)s1 [Example 102, 4-chloro-N-(2-chloro-5-(5-methylthiazol-2-yl)phenyl)-2,5-dimethylbenzenesulfonamide] |
| 1 | Cc1cnc(-c2cc(NS(=O)(=O)c3cc(C)c(Cl)cc3C)ccc2C)s1 [Example 103, 4-chloro-2,5-dimethyl-N-(4-methyl-3-(5-methylthiazol-2-yl)phenyl)benzenesulfonamide] |
| > 10 | Cc1cc(S(=O)(=O)N[C@@H]2CCCN(C(=O)[C@@H]3CCCN3C)C2)c(C)cc1Cl [Example 104, 4-chloro-2,5-dimethyl-N-((R)-1-(methyl-L-prolyl)piperidin-3-yl)benzenesulfonamide] |
| > 10 | Cc1cc(S(=O)(=O)Nc2cccc(C(=O)N3CCCC4(CC4)C3)c2)c(C)cc1Cl [Example 105, N-(3-(5-azaspiro[2.5]octane-5-carbonyl)phenyl)-4-chloro-2,5-dimethylbenzenesulfonamide] |
